Measurements from US4064345A, “Cephalosporins derivatives 7-cyclized α-amino-3-heterothio” (Bristol-Myers Company, priority 1976, dated 1977).
≈ marks a conversion by molar mass, not a printed value. Entries after “also recorded” stand apart in the source; their conditions may differ.

Assays:
K. pneumoniae A9977 = experiment: Antibiotic spectrum in nutrient broth (MIC); type: cell-based; settings: Klebsiella pneumoniae, 10^-4 dilution, BL-S1057/BL-S1058 adjusted for 80%/59% content of BL-S643
From the text: (§1) Antibiotic Spectrum of BL-S643 Derivatives in Nutrient Broth
(§2) **Dilution of overnight broth
(§3) ^(1) Adjusted for 80% content of BL-S643.
(§4) ^(2) Adjusted for 59% content of BL-S643.
(§5) In other words, the numerical values are lowered, i.e. improved. This

Ent. cloacae A9657 = experiment: Antibiotic spectrum in nutrient broth (MIC); type: cell-based; settings: Enterobacter cloacae, 10^-4 dilution, BL-S1057/BL-S1058 adjusted for 80%/59% content of BL-S643
From the text: as §1, §2, §3, §4, §5

Ent. cloacae A9659 = experiment: Antibiotic spectrum in nutrient broth (MIC); type: cell-based; settings: Enterobacter cloacae, 10^-4 dilution, BL-S1057/BL-S1058 adjusted for 80%/59% content of BL-S643
From the text: as §1, §2, §3, §4, §5

Pr. mirabilis A9900 = experiment: Antibiotic spectrum in nutrient broth (MIC); type: cell-based; settings: Proteus mirabilis, 10^-4 dilution, BL-S1057/BL-S1058 adjusted for 80%/59% content of BL-S643
From the text: as §1, §2, §3, §4, §5

Sal. enteritidis A9531 = experiment: Antibiotic spectrum in nutrient broth (MIC); type: cell-based; settings: Salmonella enterica, 10^-4 dilution, BL-S1057/BL-S1058 adjusted for 80%/59% content of BL-S643
From the text: as §1, §2, §3, §4, §5

[1] = test system: S. aureus Meth-Res A15097; experiment: Antibiotic spectrum in nutrient broth (MIC); type: cell-based; settings: Staphylococcus aureus, 10^-3 dilution, BL-S1057/BL-S1058 adjusted for 80%/59% content of BL-S643
From the text: as §1, §2, §3, §4, §5

E. coli Juhl A15119 = experiment: Antibiotic spectrum in nutrient broth (MIC); type: cell-based; settings: Escherichia coli, JUHLA15119, 10^-4 dilution, BL-S1057/BL-S1058 adjusted for 80%/59% content of BL-S643
From the text: as §1, §2, §3, §4, §5

S. aureus BX1633 A9606 = experiment: Antibiotic spectrum in nutrient broth (MIC); type: cell-based; settings: Staphylococcus aureus, BX1633A9606, nutrient broth, BL-S1057/BL-S1058 adjusted for 80%/59% content of BL-S643
From the text: as §1, §2, §3, §4, §5

K. pneumoniae A15130 = experiment: Antibiotic spectrum in nutrient broth (MIC); type: cell-based; settings: Klebsiella pneumoniae, 10^-4 dilution, BL-S1057/BL-S1058 adjusted for 80%/59% content of BL-S643
From the text: as §1, §2, §3, §4, §5

Ser. marcescens A20019 = experiment: Antibiotic spectrum in nutrient broth (MIC); type: cell-based; settings: Serratia marcescens, 10^-4 dilution, BL-S1057/BL-S1058 adjusted for 80%/59% content of BL-S643
From the text: as §1, §2, §3, §4, §5

Ent. cloacae A9656 = experiment: Antibiotic spectrum in nutrient broth (MIC); type: cell-based; settings: Enterobacter cloacae, 10^-4 dilution, BL-S1057/BL-S1058 adjusted for 80%/59% content of BL-S643
From the text: as §1, §2, §3, §4, §5

Ps. aeruginosa A9843A = experiment: Antibiotic spectrum in nutrient broth (MIC); type: cell-based; settings: Pseudomonas aeruginosa
From the text: as §1, §2, §3, §4, §5

Pr. morganii A15153 = experiment: Antibiotic spectrum in nutrient broth (MIC); type: cell-based; settings: Morganella morganii, 10^-4 dilution, BL-S1057/BL-S1058 adjusted for 80%/59% content of BL-S643
From the text: as §1, §2, §3, §4, §5

E. coli A9675 = experiment: Antibiotic spectrum in nutrient broth (MIC); type: cell-based; settings: Escherichia coli, 10^-4 dilution, BL-S1057/BL-S1058 adjusted for 80%/59% content of BL-S643
From the text: as §1, §2, §3, §4, §5

S. aureus Smith A9537 = experiment: Antibiotic spectrum in nutrient broth (MIC); type: cell-based; settings: Staphylococcus aureus, 10^-4 dilution, BL-S1057/BL-S1058 adjusted for 80%/59% content of BL-S643
From the text: as §1, §2, §3, §4, §5

[2] = Bio-assay (using cefatrizine as the standard); type: cell-based
From the text: a. Bio-assay (using cefatrizine as the standard) = 759 mcg./mg.
a. Bio-assay (using cefatrizine as the standard) = 685 mcg./mg.

[3] = Liquid chromatography, % hydrolyzed in buffer; type: physicochemical; settings: 1 mg./ml.
Experimental: f. Liquid chromatography = 100% hydrolyzed in pH 6.1 buffer within 1 hour at room temperature (concentration = 1 mg./ml.)
d. Liquid chromatography (1 mg./ml. in pH 6 buffer)

[4] = Paper strip chromatography (hydrolysis to BL-S643); type: physicochemical; settings: 0 and 1 hour at 37° C.; 0.2 mg./ml.
[5] = Paper chromatograms of rat urine after IM administration (antibiotically active metabolites); type: in vivo; settings: urine 0-2 and 2-4 hours; for Antibiotically active metabolites in rat urine (spots on paper chromatogram): descending chromatography system No. 9
Experimental: Paper chromatograms were run on rat urine collected between 0 and 2 and between 2 and 4 hours following IM administration of BL-S1057, 1058 and 643, for the detection of antibiotically active metabolites using descending chromatography with system No. 9 (butyl acetaten-butanol:glacial acetic acid:H2 O = 80:15:40:24).

Str. pyogenes A9604 = experiment: Antibiotic spectrum in nutrient broth (MIC); type: cell-based; settings: Streptococcus pyogenes, 10^-3 dilution of overnight broth culture, 45% AAB + serum + 50% broth, BL-S1057/BL-S1058 adjusted for 80%/59% content of BL-S643
From the text: as §1
(§6) *45% AAB + serum + 50% broth listed above.
as §2, §3, §4, §5

S. pneumoniae A9585 = experiment: Antibiotic spectrum in nutrient broth (MIC); type: cell-based; settings: Streptococcus pneumoniae, 10^-3 dilution of overnight broth culture, 45% AAB + serum + 50% broth, BL-S1057/BL-S1058 adjusted for 80%/59% content of BL-S643
From the text: as §1, §6, §2, §3, §4, §5

Solubility in water = type: physicochemical
Experimental: d. Solubility = >400 mg./ml. in water

[6] = SMITHA9537, nutrient broth +50% serum
[7] = SMITHA9537, nutrient broth, no serum

| SMILES | MIC (K. pneumoniae A9977) | MIC (Ent. cloacae A9657) | MIC (Ent. cloacae A9659) | MIC (Pr. mirabilis A9900) | MIC (Sal. enteritidis A9531) | MIC [1] | MIC (E. coli Juhl A15119) | MIC (S. aureus BX1633 A9606; 10^-2 dilution) | MIC (S. aureus BX1633 A9606; 10^-3 dilution) | MIC (K. pneumoniae A15130) | MIC (Ser. marcescens A20019) | MIC (Ent. cloacae A9656) | MIC (Ps. aeruginosa A9843A) | MIC (Pr. morganii A15153) | MIC (E. coli A9675) | MIC (S. aureus Smith A9537; [6]) | MIC (S. aureus Smith A9537; [7]) | Antibiotically active metabolites in rat urine (spots on paper chromatogram) [5] | MIC (Str. pyogenes A9604) | MIC (S. pneumoniae A9585) | other results |
| --- | --- | --- | --- | --- | --- | --- | --- | --- | --- | --- | --- | --- | --- | --- | --- | --- | --- | --- | --- | --- | --- |
| Cc1nnc(SCC2=C(C(=O)O)N3C(=O)C(N4C(=O)[C@@H](c5ccc(O)cc5)NC4c4ccco4)C3SC2)s1 (some centres unmarked) [BL-S1057] | 0.5 µg/mL (≈ 0.875 µM) | 0.5 µg/mL (≈ 0.875 µM) | 16 µg/mL (≈ 28 µM) | 0.5 µg/mL (≈ 0.875 µM) | 0.25 µg/mL (≈ 0.437 µM) | 2 µg/mL (≈ 3.5 µM) | 1 µg/mL (≈ 1.75 µM) | 4 µg/mL (≈ 7 µM) | 1 µg/mL (≈ 1.75 µM) | 4 µg/mL (≈ 7 µM) | 125 µg/mL (≈ 219 µM) | > 125 µg/mL | > 125 µg/mL | 16 µg/mL (≈ 28 µM) | 4 µg/mL (≈ 7 µM) | 8 µg/mL (≈ 14 µM) | 0.5 µg/mL (≈ 0.875 µM) | A single, identical spot | 0.008 µg/mL | 0.016 µg/mL | Bio-assay [2]: 759 µg/mg; degraded at 1 h ([3]; within 1 hour, pH 6.1 buffer, room temperature): 100%; Paper strip chromatography zones [4]: Primarily 1 zone at Rf of BL-S643; Hydrolysis to parent compound (BL-S643) [5]: complete hydrolysis; solubility (Solubility in water): > 400 mg/mL |
| Cc1nnc(SCC2=C(C(=O)O)N3C(=O)C(NC(=O)[C@H](N)c4ccc(O)cc4)C3SC2)s1 (some centres unmarked) [BL-S643, reference compound] | 0.5 µg/mL (≈ 1.01 µM) | 4 µg/mL (≈ 8.1 µM) | 32 µg/mL (≈ 64.8 µM) | 0.5 µg/mL (≈ 1.01 µM) | 0.25 µg/mL (≈ 0.506 µM) | 4 µg/mL (≈ 8.1 µM) | 1 µg/mL (≈ 2.03 µM) | 4 µg/mL (≈ 8.1 µM) | 1 µg/mL (≈ 2.03 µM) | 4 µg/mL (≈ 8.1 µM) | 125 µg/mL (≈ 253 µM) | > 125 µg/mL | > 125 µg/mL | 16 µg/mL (≈ 32.4 µM) | 4 µg/mL (≈ 8.1 µM) | 8 µg/mL (≈ 16.2 µM) | 0.5 µg/mL (≈ 1.01 µM) | A single, identical spot | 0.016 µg/mL | 0.03 µg/mL | – |
| Cc1nnc(SCC2=C(C(=O)O)N3C(=O)C(N4C(=O)[C@@H](c5ccc(O)cc5)NC4c4ccc(S(=O)(=O)O)o4)C3SC2)s1 (some centres unmarked) [BL-S1058] | 0.5 µg/mL (≈ 0.767 µM) | 0.5 µg/mL (≈ 0.767 µM) | 16 µg/mL (≈ 24.6 µM) | 0.5 µg/mL (≈ 0.767 µM) | 0.13 µg/mL (≈ 0.199 µM) | 2 µg/mL (≈ 3.07 µM) | 1 µg/mL (≈ 1.53 µM) | 4 µg/mL (≈ 6.14 µM) | 0.5 µg/mL (≈ 0.767 µM) | 2 µg/mL (≈ 3.07 µM) | 125 µg/mL (≈ 192 µM) | > 125 µg/mL | > 125 µg/mL | 16 µg/mL (≈ 24.6 µM) | 2 µg/mL (≈ 3.07 µM) | 8 µg/mL (≈ 12.3 µM) | 0.25 µg/mL (≈ 0.384 µM) | A single, identical spot | 0.008 µg/mL | 0.016 µg/mL | Bio-assay [2]: 685 µg/mg; % Hydrolyzed ([3]; 0 hours, pH 6 buffer): 25.4%; degraded at 1 h ([3]; 1 hour, pH 6 buffer): 46.5%; degraded at 2 h ([3]; 2 hours, pH 6 buffer): 59%; Paper strip chromatography zones [4]: Primarily 1 zone at Rf of BL-S643; also recorded: evidence of a second zone; Hydrolysis to parent compound (BL-S643) [5]: complete hydrolysis |
